Source: the METLIN SMRT retention time set (Domingo-Almenara et al. 2019)

Assay: gradient 5% acetonitrile 3 min, to 50% in 2 min, to 85% in 15 min, held 3 min, 100 µL/min
Conditions: column: Zorbax Extend-C18 2.1 x 50 mm; eluents: water / acetonitrile, 0.1% formic acid
Summary of the method: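 Data were gathered over 3 months by HPLC coupled to a quadrupole time-of-flight mass spectrometer, operated in positive and negative ionization mode. Mixtures of ~100 pure standards ran on a Zorbax Extend-C18 column (2.1 × 50 mm, 1.8 μm) at 100 μL/min, with water and acetonitrile each containing 0.1% formic acid and dead and dwell volumes of 40 μL and 900 μL. Retention time was read from adduct peaks picked by computer and checked manually.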

| Compound | RP-LC retention time |
| --- | --- |
| Cc1ccc(CNS(=O)(=O)c2cc(-c3[nH]ncc3C(=O)N3CCCC3)oc2C)cc1 | 725 s |
| COC(=O)Nc1ccc(S(=O)(=O)N2CCCC(C(=O)O)C2)cc1 (stereo unspecified) | 640 s |
| COc1ccc(-c2noc(C3CCCN3C(=O)c3cccs3)n2)cc1 (stereo unspecified) | 924 s |
| Cc1ccc(CNC(=O)C2CCCN(S(=O)(=O)c3c[nH]c(C(=O)N4CCCC4)c3)C2)cc1 (stereo unspecified) | 762 s |
| O=C(c1cccnn1)N1C[C@@H](COCC2CC2)[C@H](c2ccncc2)C1 | 563 s |
| CC1CCC2(CC1)NC(=O)N(CC(=O)NCc1ccc3c(c1)OCO3)C2=O (stereo unspecified) | 749 s |
| CCc1ccc(-c2nc(-c3ccc4nnn(C)c4c3)no2)cc1 | 1150 s |
| CCCc1c(C)nc2ncnn2c1N1CCN(c2ccccn2)CC1 | 583 s |
| CC1CCN(S(=O)(=O)c2ccc3nc(N4CCN(C5CCCCC5)CC4)ccc3c2)CC1 | 776 s |
| Cc1nocc1C(=O)N1CCCn2ccnc2C1C1CCCC1 (stereo unspecified) | 589 s |
| CCn1cc(-c2ccc(OC)cc2)cc1C(=O)N1CCCCCC1 | 1080 s |
| Cc1cccc(-c2noc(C3CCCN3S(=O)(=O)c3ccc(C(C)C)cc3)n2)c1 (stereo unspecified) | 1330 s |
| Cc1ccc(NC(=O)C2CCCN2S(=O)(=O)c2cc3c(cc2C)NC(=O)C(C)O3)cc1C (stereo unspecified) | 842 s |
| CCN1CCN(C(=O)C2CCN(S(=O)(=O)c3ccc4c(c3)sc(=O)n4C)CC2)CC1 | 551 s |
| COc1cccc(-c2csc(CN3CCNCC3)n2)c1 | 566 s |
| CC(CCNC(=O)c1cc(S(=O)(=O)N2CCCCC2)ccc1Cl)N1CCCC1 (stereo unspecified) | 643 s |
| CNC(=O)C1CC(=O)N(C2CCCCC2)C1 (stereo unspecified) | 609 s |

Further lines, results first:

| RP-LC retention time | Compound |
| --- | --- |
| 1130 s | COc1cccc(-c2nn3c(COc4ccc(Br)cc4)nnc3s2)c1OC |
| 989 s | CCN1C(=O)COc2ccc(-c3csc(NC(=O)c4ccc(F)cc4)n3)cc21 |
| 728 s | CC(=O)N1CCC(C(=O)NCc2nn(Cc3ccccc3)c3ccccc23)CC1 |
| 781 s | CCCn1cc(CCNC(=O)Nc2ccc(C)cc2C)c2cccnc21 |
| 1060 s | CCOc1cccc(-c2noc(Cn3nc(-c4ccc(F)cc4)ccc3=O)n2)c1 |
| 572 s | CCN(CC)C(=O)CN1CCN(c2cc(C(=O)O)c3cc(NC(=O)C(C)(C)C)ccc3n2)CC1 |
| 1040 s | COc1ccc(N2CCN(c3cc(SCC(=O)Nc4ccccc4OC)ncn3)CC2)cc1 |
| 716 s | O=C(c1cc2c(=O)n(Cc3ccccc3)ccc2s1)N1CCOCC1 |
| 1000 s | CCOC(=O)c1ccccc1NC(=O)Cn1nc2c(Oc3ccccc3)nccn2c1=O |
| 950 s | O=C(Cn1cnc2c(sc3nc(-c4ccccc4)ccc32)c1=O)NCc1ccc2c(c1)OCO2 |
| 909 s | CCOC(=O)c1nc(N(C)c2ccc(F)cc2)c2ccccc2n1 |
| 1060 s | Cc1cccc(-c2noc(Cn3nc(-c4ccccc4)ccc3=O)n2)c1 |
| 863 s | COc1ccc(CNC(=O)CN2C(=O)CC(c3cccs3)=Nc3ccccc32)cc1 |
| 648 s | Cn1nc(C(=O)N2CCCC(C(=O)NC3CC3)C2)c2c1CCN(C(=O)c1ccccc1Cl)C2 (stereo unspecified) |
| 679 s | Cc1cccc2nc(-c3ccccc3)c(Nc3ccc4c(c3)OCCO4)n12 |
| 1010 s | Cc1ccc(Cn2nnc(C(=O)NCc3ccco3)c2-n2cccc2)cc1 |
| 586 s | CCc1ccc(NC(=O)C2CCCN(c3ccc(=O)n(-c4ccc(C)c(Cl)c4)n3)C2)cc1 (stereo unspecified) |
| 878 s | O=c1c2scc(-c3ccc(Cl)cc3)c2ncn1Cc1cc(=O)n2ccccc2n1 |
| 914 s | COc1ccc(-c2cn3c(CC(=O)Nc4ccc(Br)c(C)c4)csc3n2)cc1 |
